Results: paper PMC4722047, “Purification and characterization of the enzymes involved in nicotinamide adenine dinucleotide degradation by Penicillium brevicompactum NRC 829” (3 Biotech, 2016)

Test system: T1, NAD aminohydrolase (NAD deaminase)
T1 construct: native enzyme purified from mycelial extract (acetone, DEAE-Sephadex A-25, Sephadex G-100); 91 kDa by SDS-PAGE
Assay: discontinuous ammonia release (Nessler's reagent)
Type: biochemical, Penicillium brevicompactum
Settings: pH 6.0, 50 mM Tris-acetate
Source text: discontinuous ammonia release (Nessler's reagent) on NAD aminohydrolase (NAD deaminase)

[1] = 40 °C (conditions given for NAD)

Km [1]	Km (40 °C, 30 min, 1.5-20 µM NAD+)	SMILES
6.25 µM	–	Nc1ncnc2c1ncn2[C@@H]1O[C@H](COP(=O)(O)OP(=O)(O)O)[C@@H](O)[C@H]1O [ADP]
8.33 µM	–	Nc1ncnc2c1ncn2[C@@H]1O[C@H](COP(=O)(O)O)[C@@H](O)[C@H]1O [AMP]
–	5.2 µM	NC(=O)c1ccc[n+]([C@@H]2O[C@H](COP(=O)(O)OP(=O)(O)OC[C@H]3O[C@@H](n4cnc5c(N)ncnc54)[C@H](O)[C@@H]3O)[C@@H](O)[C@H]2O)c1 [NAD]

SMILES	Km [1]	Km (40 °C, 30 min, 1.5-20 µM NAD+)
Nc1ncnc2c1ncn2[C@@H]1O[C@H](CO)[C@@H](O)[C@H]1O [Adenosine]	4.5 µM	–
